Data as given in ChEMBL document CHEMBL1201862, “PubChem BioAssay data set” (2004).
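Each compound was tested at five concentrations against cells in 96-well plates for 48 hours. GI50 = concentration required for 50% inhibition of growth.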 Activity calls are given as the source filed them. Cut-off read from the data, not from the text of the source: active = GI50 up to about 1.1 µM and inactive = higher.

Tests used:
Experiment in all cases: NCI tumour cell line growth inhibition, 48 h
[1] = test system: K562
[2] = test system: HL-60
[3] = test system: OVCAR-4
[4] = test system: SF-295
[5] = test system: 786-0
[6] = test system: KM12
[7] = test system: DU-145
[8] = test system: SK-MEL-28
[9] = test system: A549
[10] = test system: MOLT-4
[11] = test system: UACC-62
[12] = test system: RXF 393
[13] = test system: SF-539
[14] = test system: HOP-62
[15] = test system: SK-MEL-2
[16] = test system: NCI-H522
[17] = test system: CAKI-1
[18] = test system: Hs-578T
[19] = test system: NCI-H460
[20] = test system: HOP-92
[21] = test system: MDA-MB-231
[22] = test system: MDA-MB-435
[23] = test system: NCI-H23
[24] = test system: U-251
[25] = test system: LOX IMVI
[26] = test system: A498
[27] = test system: ACHN
[28] = test system: SF-268
[29] = test system: SNB-19
[30] = test system: SK-OV-3
[31] = test system: PC-3
[32] = test system: UACC-257
[33] = test system: OVCAR-3
[34] = test system: HCT-116
[35] = test system: BT-549
[36] = test system: SW-620
[37] = test system: SNB-75
[38] = test system: T47D
[39] = test system: OVCAR-5
[40] = test system: OVCAR-8
[41] = test system: MCF7
[42] = test system: Malme-3M
[43] = test system: UO-31
[44] = test system: SN12C
[45] = test system: TK-10
[46] = test system: HCT-15
[47] = test system: IGROV-1
[48] = test system: EKVX
[49] = test system: CCRF-CEM
[50] = test system: HT-29
[51] = test system: HCC 2998
[52] = test system: COLO 205
[53] = test system: NCI/ADR-RES
[54] = test system: M14
[55] = test system: NCI-H226
[56] = test system: RPMI-8226
[57] = test system: SK-MEL-5
[58] = test system: SR

Compound: N#Cc1cc(-c2nc3cc(F)ccc3s2)ccc1N
- GI50 [1]: > 100 µM (inactive)
- GI50 [2]: > 100 µM (inactive)
- GI50 [3]: 0.718 µM (active)
- GI50 [4]: 20.4 µM (inactive)
- GI50 [5]: 27.6 µM (inactive)
- GI50 [6]: 0.059 µM (active)
- GI50 [7]: 53.1 µM (inactive)
- GI50 [8]: > 100 µM (inactive)
- GI50 [9]: 1.84 µM (inactive)
- GI50 [10]: > 100 µM (inactive)
- GI50 [11]: 14.9 µM (inactive)
- GI50 [12]: 2.11 µM (inactive)
- GI50 [13]: 13.3 µM (inactive)
- GI50 [14]: 15.3 µM (inactive)
- GI50 [15]: 29.3 µM (inactive)
- GI50 [16]: > 53.1 µM (inactive)
- GI50 [17]: > 38.7 µM (inactive)
- GI50 [18]: 15.8 µM (inactive)
- GI50 [19]: < 0.0226 µM (active)
- GI50 [20]: 4.08 µM (inactive)
- GI50 [21]: 8.83 µM (inactive)
- GI50 [22]: > 78.3 µM (inactive)
- GI50 [23]: < 0.01 µM (active)
- GI50 [24]: 12.4 µM (inactive)
- GI50 [25]: > 100 µM (inactive)
- GI50 [26]: 3.39 µM (inactive)
- GI50 [27]: 1.36 µM (inactive)
- GI50 [28]: 18.1 µM (inactive)
- GI50 [29]: 18.2 µM (inactive)
- GI50 [30]: 20.7 µM (inactive)
- GI50 [31]: 24.7 µM (inactive)
- GI50 [32]: > 100 µM (inactive)
- GI50 [33]: 19.8 µM (inactive)
- GI50 [34]: 9.51 µM (inactive)
- GI50 [35]: 2.3 µM (inactive)
- GI50 [36]: > 100 µM (inactive)
- GI50 [37]: 1.59 µM (inactive)
- GI50 [38]: < 0.012 µM (active)
- GI50 [39]: 0.0702 µM (active)
- GI50 [40]: > 67.9 µM (inactive)
- GI50 [41]: < 0.01 µM (active)
- GI50 [42]: > 79.1 µM (inactive)
- GI50 [43]: 42 µM (inactive)
- GI50 [44]: > 100 µM (inactive)
- GI50 [45]: 0.034 µM (active)
- GI50 [46]: 0.384 µM
- GI50 [47]: < 0.0112 µM (active)
- GI50 [48]: 0.253 µM (active)
- GI50 [49]: > 100 µM (inactive)
- GI50 [50]: 1.97 µM (inactive)
- GI50 [51]: < 0.01 µM (active)
- GI50 [52]: 1.8 µM (inactive)
- GI50 [53]: > 61.2 µM (inactive)
- GI50 [54]: 33.6 µM (inactive)
- GI50 [55]: 3.34 µM (inactive)
- GI50 [56]: > 100 µM (inactive)

Compound: CCC1OC2C(CC=C(C)C)=C3OC(C)(O)C(C)(CC)C(OC(C)=O)C3=C3OC(=O)C=C1C32 (configuration not stated)
- GI50 [1]: 32.8 µM (inactive)
- GI50 [2]: 75 µM (inactive)
- GI50 [3]: 32.4 µM (inactive)
- GI50 [4]: 17.8 µM (inactive)
- GI50 [5]: 37.7 µM (inactive)
- GI50 [6]: 23.1 µM (inactive)
- GI50 [57]: 20.4 µM (inactive)
- GI50 [7]: 39.6 µM (inactive)
- GI50 [8]: 24.7 µM (inactive)
- GI50 [9]: 31.6 µM (inactive)
- GI50 [10]: 22.7 µM (inactive)
- GI50 [11]: 18.8 µM (inactive)
- GI50 [13]: 19.6 µM (inactive)
- GI50 [14]: 23.6 µM (inactive)
- GI50 [15]: 19.9 µM (inactive)
- GI50 [16]: 16.6 µM (inactive)
- GI50 [17]: 28.2 µM (inactive)
- GI50 [18]: 39.7 µM (inactive)
- GI50 [19]: 30.9 µM (inactive)
- GI50 [20]: 59.4 µM (inactive)
- GI50 [21]: 19.8 µM (inactive)
- GI50 [22]: 21.3 µM (inactive)
- GI50 [23]: 27.7 µM (inactive)
- GI50 [24]: 30.3 µM (inactive)
- GI50 [25]: 21.3 µM (inactive)
- GI50 [26]: 36.7 µM (inactive)
- GI50 [27]: 39.6 µM (inactive)
- GI50 [28]: 31.4 µM (inactive)
- GI50 [29]: 28.1 µM (inactive)
- GI50 [30]: 33.6 µM (inactive)
- GI50 [31]: 38.8 µM (inactive)
- GI50 [32]: 22.2 µM (inactive)
- GI50 [58]: 31.8 µM (inactive)
- GI50 [33]: 37.8 µM (inactive)
- GI50 [34]: 25.7 µM (inactive)
- GI50 [35]: 21.5 µM (inactive)
- GI50 [36]: 53.7 µM (inactive)
- GI50 [37]: 23.6 µM (inactive)
- GI50 [38]: 37.8 µM (inactive)
- GI50 [39]: 22 µM (inactive)
- GI50 [40]: 35 µM (inactive)
- GI50 [41]: 30.1 µM (inactive)
- GI50 [42]: 21.4 µM (inactive)
- GI50 [43]: 22.6 µM (inactive)
- GI50 [44]: 20.4 µM (inactive)
- GI50 [45]: 34.4 µM (inactive)
- GI50 [46]: 37 µM
- GI50 [47]: 26.4 µM (inactive)
- GI50 [48]: 33.3 µM (inactive)
- GI50 [49]: 36 µM (inactive)
- GI50 [50]: 22.8 µM (inactive)
- GI50 [51]: 24 µM (inactive)
- GI50 [52]: 28.2 µM (inactive)
- GI50 [53]: 29.6 µM (inactive)
- GI50 [54]: 30.5 µM (inactive)
- GI50 [56]: 22.1 µM (inactive)
